This is an account of results in patent US3956291A, “7-Thioacetamido cephalosporanic acid derivatives” (American Home Products Corporation, priority 1974, dated 1976).

Common to all, as to experiment: agar serial dilution test, minimum inhibitory concentration
Holding throughout (type): cell-based

One assay deals with Staphylococcus aureus. Particulars: Staphylococcus aureus. The source says: (§1) The compounds of this invention are useful for the treatment of bacterial infections amenable to treatment by cephalosporins. […] In accordance with the results obtained with the antibacterial compounds of this invention, their usefulness is established in the fields of comparative pharmacology and microbiology for the purpose of inhibiting the growth of undesirable bacterial colonies. […]

The next assay deals with bacillus subtilis. Particulars: Bacillus subtilis; BA SU strain 6633.
Source text: as §1

In a further assay the test system is bordetella brochiseptica. Particulars: BO BR strain 4617.
Source text: as §1

The next assay has as its system escherichia coli.
Source text: as §1

A further assay concerns klebsiella pneumoniae.
Source text: as §1

Another assay deals with neisseria catarrhalis.
Source text: as §1

The next assay deals with proteus vulgaris.
Source text: as §1

For the next assay, the system named is salmonella paratyphi. The note with it: Salmonella enterica, read-out: Minimum Inhibitory Concentration.
Source text: as §1

The test system of another assay is herellea species. Particulars: HE SP strain 9955. An excerpt:
(§2) The compounds of this invention are useful for the treatment of bacterial infections amenable to treatment by cephalosporins. […] In accordance with the results obtained with the antibacterial compounds of this invention, their usefulness is established in the fields of comparative pharmacology and microbiology for the purpose of inhibiting the growth of undesirable bacterial colonies.
(§3) The nmr spectra described in the following examples pertains to the spectra obtained upon exchanging acidic hydrogens with deuterium and are described in ppm (δ). The small amount of water and/or solvent carried into the products is readily removed by gently heating the material under vacuum. […]

Another assay has as its system escherichia intermedia. Particulars: Citrobacter intermedius; ES IN strain 65-1.
Source text: as §2, §3

Another assay relates to pseudomones aeruginosa. The note with it: PS AE strain 10145.
Source text: as §2, §3

Another assay relates to enterobacter aerogenes. Particulars: Klebsiella aerogenes; EN AE strain 13048.
Source text: as §2, §3

[1] abbreviates: read-out: Minimum Inhibitory Concentration.
Where [2] appears, read: PR VU strain 6896, read-out: Minimum Inhibitory Concentration.
The mark [3] stands for this setting: KL PN strain 10031, read-out: Minimum Inhibitory Concentration.
[4] abbreviates: NE CA strain 8193, read-out: Minimum Inhibitory Concentration.

Values after ≈ are worked out from the molar mass of the structure shown. Read-outs that look alike come from different tables or passages of the source.

On to `CC(=O)OCC1=C(C(=O)O)N2C(=O)[C@@H](NC(=O)CSC(SCC#N)=C(C#N)C#N)[C@H]2SC1` [Example 2, 7-(2-[2,2-Dicyano-1-(cyanomethylthio)ethenylthio]acetamido)cephalosporanic acid], for which the MIC amounted to 1.95 µg/mL (≈ 3.95 µM) in the assay on Staphylococcus aureus (ST AU strain 53-180); 0.488 µg/mL (≈ 0.989 µM) in the assay with Staphylococcus aureus (ST AU strain 6538P); 1.95 µg/mL (≈ 3.95 µM) in the assay on Staphylococcus aureus (ST AU strain CHP); 0.488 µg/mL (≈ 0.989 µM) in the assay with Staphylococcus aureus (ST AU strain Smith); 0.061 µg/mL (≈ 0.124 µM) with bacillus subtilis; 62.5 µg/mL (≈ 127 µM) against bordetella brochiseptica. The MIC with escherichia coli (ES CO strain 920) was found to be 250 µg/mL (≈ 507 µM); against escherichia coli (ES CO strain 9637), 31.3 µg/mL (≈ 63.4 µM); with klebsiella pneumoniae (setting [1]), 15.6 µg/mL (≈ 31.6 µM); in the assay with neisseria catarrhalis (setting [1]) it was 15.6 µg/mL (≈ 31.6 µM); with proteus vulgaris (setting [2]), 31.3 µg/mL (≈ 63.4 µM); in the assay on salmonella paratyphi it was 15.6 µg/mL (≈ 31.6 µM). The MIC in the assay with herellea species came to 250 µg/mL (≈ 507 µM).

Take `CC(=O)OCC1=C(C(=O)O)N2C(=O)[C@@H](NC(=O)CSC(=C[N+](=O)[O-])SCC#N)[C@H]2SC1` [Example 6, 7-[2-(1-Cyanomethylthio-2-nitroethenylthio)acetamido]cephalosporanic acid]: the MIC amounted to 3.9 µg/mL (≈ 7.98 µM) against Staphylococcus aureus (ST AU strain 53-180); 0.976 µg/mL (≈ 2 µM) in the assay with Staphylococcus aureus (ST AU strain 6538P); 3.9 µg/mL (≈ 7.98 µM) in the assay on Staphylococcus aureus (ST AU strain CHP); 0.976 µg/mL (≈ 2 µM) against Staphylococcus aureus (ST AU strain Smith); 0.122 µg/mL (≈ 0.25 µM) with bacillus subtilis; 125 µg/mL (≈ 256 µM) with bordetella brochiseptica. Besides, the MIC worked out at 125 µg/mL (≈ 256 µM) with escherichia coli (ES CO strain 920); 62.5 µg/mL (≈ 128 µM) in the assay on escherichia coli (ES CO strain 9637); 62.5 µg/mL (≈ 128 µM) with klebsiella pneumoniae (setting [3]); 62.5 µg/mL (≈ 128 µM) in the assay with neisseria catarrhalis (setting [4]); 31.3 µg/mL (≈ 64.1 µM) in the assay with proteus vulgaris (setting [2]); 7.81 µg/mL (≈ 16 µM) in the assay on salmonella paratyphi. Also, the MIC with escherichia intermedia turned out to be 250 µg/mL (≈ 512 µM); with herellea species, 125 µg/mL (≈ 256 µM); against pseudomones aeruginosa, 250 µg/mL (≈ 512 µM).

Consider `CC(=O)OCC1=C(C(=O)O)N2C(=O)[C@@H](NC(=O)CSC(=NC#N)SCC#N)[C@H]2SC1` [Example 7, 7-[2-[(cyanoimino) (cyanomethylthio)methylthio]acetamido]cephalosporanic acid], for which the MIC is 0.976 µg/mL (≈ 2.08 µM) against Staphylococcus aureus (ST AU strain 53-180); 0.488 µg/mL (≈ 1.04 µM) against Staphylococcus aureus (ST AU strain 6538P); 195 µg/mL (≈ 415 µM) with Staphylococcus aureus (ST AU strain CHP); 0.488 µg/mL (≈ 1.04 µM) in the assay on Staphylococcus aureus (ST AU strain Smith); 0.061 µg/mL (≈ 0.13 µM) with bacillus subtilis; 15.6 µg/mL (≈ 33.2 µM) against bordetella brochiseptica. Further, the MIC against escherichia coli (ES CO strain 9637) worked out at 31.3 µg/mL (≈ 66.7 µM); in the assay with neisseria catarrhalis (setting [4]), 31.3 µg/mL (≈ 66.7 µM); in the assay with proteus vulgaris (setting [2]) it was 31.3 µg/mL (≈ 66.7 µM); against enterobacter aerogenes it was 7.81 µg/mL (≈ 16.6 µM); with escherichia intermedia it was 62.5 µg/mL (≈ 133 µM); in the assay on herellea species, 31.3 µg/mL (≈ 66.7 µM).

On to `CC(=O)OCC1=C(C(=O)O)N2C(=O)[C@@H](NC(=O)CSC(=NS(C)(=O)=O)SCC#N)[C@H]2SC1` [Example 14, 7-[2-[(cyanomethylthio)(methylsulfonylimino)methylthio]acetamido)cephalosporanic acid], for which the MIC was determined as 7.81 µg/mL (≈ 14.9 µM) in the assay on Staphylococcus aureus (ST AU strain 53-180); 1.95 µg/mL (≈ 3.73 µM) against Staphylococcus aureus (ST AU strain 6538P); 7.81 µg/mL (≈ 14.9 µM) in the assay with Staphylococcus aureus (ST AU strain CHP); 1.95 µg/mL (≈ 3.73 µM) with Staphylococcus aureus (ST AU strain Smith); 0.244 µg/mL (≈ 0.467 µM) against bacillus subtilis; 62.5 µg/mL (≈ 120 µM) in the assay on bordetella brochiseptica. Also, the MIC against escherichia coli (ES CO strain 920) stood at 125 µg/mL (≈ 239 µM); in the assay on escherichia coli (ES CO strain 9637), 125 µg/mL (≈ 239 µM); with klebsiella pneumoniae (setting [3]), 31.3 µg/mL (≈ 59.9 µM); with neisseria catarrhalis (setting [4]), 125 µg/mL (≈ 239 µM); with proteus vulgaris (setting [2]), 31.3 µg/mL (≈ 59.9 µM); in the assay on salmonella paratyphi, 15.6 µg/mL (≈ 29.9 µM). Besides, the results for the MIC in the assay on herellea species and against pseudomones aeruginosa were 250 µg/mL (≈ 478 µM) and 125 µg/mL (≈ 239 µM), respectively.

On to `C=CCSC(=NC#N)SCC(=O)N[C@@H]1C(=O)N2C(C(=O)O)=C(COC(C)=O)CS[C@H]12` [Example 19, 7-[2-[(cyanoimino)(2-propenylthio)methylthio]acetamido]cephalosporanic acid], for which the MIC in the assay on Staphylococcus aureus (ST AU strain 53-180) stood at 3.9 µg/mL (≈ 8.29 µM); in the assay with Staphylococcus aureus (ST AU strain 6538P), 1.95 µg/mL (≈ 4.14 µM); against Staphylococcus aureus (ST AU strain CHP), 7.81 µg/mL (≈ 16.6 µM); against Staphylococcus aureus (ST AU strain Smith) it was 1.95 µg/mL (≈ 4.14 µM); in the assay on bacillus subtilis, 0.488 µg/mL (≈ 1.04 µM); against bordetella brochiseptica, 125 µg/mL (≈ 266 µM). Further, the MIC with escherichia coli (ES CO strain 920) is 250 µg/mL (≈ 531 µM); against escherichia coli (ES CO strain 9637), 250 µg/mL (≈ 531 µM); in the assay with klebsiella pneumoniae (setting [3]) it was 125 µg/mL (≈ 266 µM); with neisseria catarrhalis (setting [4]), 250 µg/mL (≈ 531 µM); in the assay on proteus vulgaris (setting [1]), 31.3 µg/mL (≈ 66.5 µM); with salmonella paratyphi, 31.3 µg/mL (≈ 66.5 µM).
